The source made the active and inactive calls.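 The calls were made as follows: active = a tumor-causing dose value with its tumor site reported for any sex and species group of a rodent or other animal cancer study; inconclusive = only studies judged inadequate by the national testing program; inactive = tested in at least one study, none positive.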 Numbered stars: 1 amine (or outer) side, 2 acyl side, 3 side chain; on linkers, the order of the positions; unused ones are H or OH. Bridge positions count the residues as written; N and C are the ends. Square brackets hold non-standard residues; d marks the D form. Peptide text beside a SMILES is read from it. I, II: the chains in the order shown. Actinocin(9to1) = Cc1c2oc3c(C)ccc(C(=O)[*:1])c3nc-2c(C(=O)[*:2])c(N)c1=O; NMeV = CN[C@H](C(=O)O)C(C)C; Sar = CNCC(=O)O
Experiment: DSSTox (CPDBAS) Carcinogenic Potency Database Summary SingleCellCall Results
Settings: animal chronic carcinogenicity bioassays, CPDB summary call
Procedure, shortened: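 Literature-derived summary: each substance receives an overall carcinogenic/non-carcinogenic category drawn from long-term bioassays in rats, mice, hamsters, dogs or primates, using the most positive sex-species experiment and minimal evidence criteria.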

SMILES	outcome
Cc1ncc([N+](=O)[O-])n1C	active
N[C@@H](CC(=O)O)C(=O)O	inactive; active
CCCCCCCCCC[N+](C)(C)[O-]	inactive
NNc1nc(-c2ccc([N+](=O)[O-])o2)cs1	active; inactive
COC(C(=O)O)c1ccccc1 (configuration not stated)	inactive; active
CCC(O)OC(O)CC (configuration not stated)	inactive
Cc1cnc2ccc3c(nc(N)n3C)c2n1	active
CC(=O)Nc1nnc(-c2ccc([N+](=O)[O-])o2)s1	active
CN(N=O)c1ccncc1	inactive; active
O=NN1CC(=O)NC1=O	active
O=NN1CCC[C@H]1C(=O)O	inactive
O=C(C1CCCCC1)N1CC(=O)N2CCc3ccccc3C2C1 (configuration not stated)	inactive
CCCCCl	inactive
CC(=O)NNc1ccccc1	active
CNC(=S)N(C)C	active
CC(=O)Nc1ccc2c(c1)Cc1ccccc1-2	active
Cc1cc(=O)[nH]c(=S)[nH]1	active
CC(Cl)(Cl)Cl	inactive
NNc1nc(-c2ccc(N)cc2)cs1	active
Clc1ccc(-c2cccc(Cl)c2Cl)c(Cl)c1	active
Clc1cc2c(cc1Cl)Oc1cc(Cl)c(Cl)cc1O2	active; inactive
CCNc1nc(Cl)nc(NC(C)C)n1	active
S=[Se]	active

SMILES	outcome
Nc1nc(N)nc(-c2ccc([N+](=O)[O-])o2)n1	active
COc1cc2c(cc1N)oc1ccccc12	active
Nc1ncn[nH]1	active; inactive
CC(C)(C)NC(=O)[C@H]1CC[C@H]2[C@@H]3CC[C@H]4NC(=O)C=C[C@]4(C)[C@H]3CC[C@]12C	active; inactive
S=C(NC1CCCCC1)NC1CCCCC1	inactive; active
FC(F)OC(F)(F)C(F)Cl (configuration not stated)	inactive
CC(Oc1cc(Cl)c(Cl)cc1Cl)C(=O)O (configuration not stated)	inactive
COc1cccc2c1cc([N+](=O)[O-])c1c(C(=O)O)cc3c(c12)OCO3	active; inactive
O=c1cc[nH]c(=S)[nH]1	active; inactive
CCCCN(N)CCCC	active
O=NN1CCCC1c1ccc[n+]([O-])c1 (configuration not stated)	active; inactive
O.O.O.O.O.O.O=S(=O)([O-])[O-].[Ni+2]	inactive
CC(C)C=O	inactive
CCOC(N)=O	active; inactive
CCNNC(=O)[C@@H]1[C@H](c2cc(OC)c(OC)c(OC)c2)c2cc3c(cc2[C@H](O)[C@H]1CO)OCO3	inactive
C/C=C(/C)C(=O)O[C@H]1CCN2CC=C(COC(=O)[C@](O)([C@H](C)OC)C(C)(C)O)[C@H]12	active
CCC1CO1 (configuration not stated)	active; inactive
Nc1ccc([N+](=O)[O-])cc1O	active
ClCCl	active
Cc1c2oc3c(C)ccc(C(=O)N[C@@H]4C(=O)N[C@H](C(C)C)C(=O)N5CCC[C@H]5C(=O)N(C)CC(=O)N(C)[C@@H](C(C)C)C(=O)O[C@@H]4C)c3nc-2c(C(=O)N[C@@H]2C(=O)N[C@H](C(C)C)C(=O)N3CCC[C@H]3C(=O)N(C)CC(=O)N(C)[C@@H](C(C)C)C(=O)O[C@@H]2C)c(N)c1=O (I: T[dV]P[Sar][NMeV] / II: T[dV]P[Sar][NMeV]; ester I:1-I:C, II:1-II:C; linker I:N-II:N via Actinocin(9to1))	active; inactive
C#C[C@]1(O)CC[C@H]2[C@@H]3CCc4cc(OC)ccc4[C@H]3CC[C@@]21C	inactive
C/C=C1/C[C@@H](C)[C@](O)(CO)C(=O)OCC2=CC[N+]3([O-])CC[C@@H](OC1=O)[C@@H]23 (some centres not stated)	active
Cc1ccccc1	active

SMILES	outcome
CCCCCCCCCc1ccc(OCCOCCO)cc1	inactive; active
O=C1C=CC(=O)C=C1	active
CC(=O)N(C(C)=O)c1cccc2c1Cc1ccccc1-2	active
ClCC1CO1 (configuration not stated)	active
CN=C(N)N	inactive; active
CCOC(=O)[C@]1(c2ccccc2)CCC=C[C@H]1N(C)C	inactive
CC(C)(CO)CCCCCCC(C)(C)CO	inactive
Clc1ccc(-c2ccc(Cl)c(Cl)c2Cl)c(Cl)c1Cl	active
Nc1ccc(N)c(Cl)c1	inactive
CC(=O)N(O)c1ccc2c(c1)Cc1ccccc1-2	active; inactive
Oc1ccc2ccccc2c1N=Nc1ccccc1	active
Nc1c(Cl)c(Cl)nc(C(=O)O)c1Cl	inactive
O=C/C(Cl)=C(/Cl)C(=O)O	inactive
OC[C@H]1O[C@@](CO)(O[C@H]2O[C@H](CO)[C@@H](O)[C@H](O)[C@H]2O)[C@@H](O)[C@@H]1O	inactive
O=NN1CCC1	active
N[C@@H](Cc1cnc[nH]1)C(=O)O	inactive
Cn1c(=O)c2[nH]cnc2n(C)c1=O	inactive; active
CCCCC(CC)COC(=O)CCCCC(=O)OCC(CC)CCCC (configuration not stated)	active
N[C@@H](CCC(=O)NNc1ccc(CO)cc1)C(=O)O	inactive
CCN(CC)CCOc1ccc(C(O)(Cc2ccc(OC)cc2)c2ccccc2)cc1 (configuration not stated)	inactive
CC/C(C)=N/O	active; inactive
O=C1CCO1	active; inactive
O=C1O[C@@H](CN2CCOCC2)CN1/N=C/c1ccc([N+](=O)[O-])o1	active

SMILES	outcome
COc1c(Cl)c(Cl)c(Cl)c(Cl)c1Cl	active
Nc1ccc2c(n1)[nH]c1ccccc12	active
CN(N=O)C(=O)c1ccccc1C(=O)N(C)N=O	inactive
Cc1cc(C(C)(C)C)c(O)c(C(C)(C)C)c1	active
Nc1nc(N)nc(-c2cc(Cl)ccc2Cl)n1	inactive
COC1=CC(=O)C[C@@H](C)[C@]12Oc1c(Cl)c(OC)cc(OC)c1C2=O	active
CO[C@H]1/C=C/O[C@@]2(C)Oc3c(C)c(O)c4c(O)c(c(/C=N/N5CCN(C)CC5)c(O)c4c3C2=O)NC(=O)/C(C)=C\C=C\[C@H](C)[C@H](O)[C@@H](C)[C@@H](O)[C@@H](C)[C@H](OC(C)=O)[C@@H]1C	active; inactive
O=[N+]([O-])c1ccc2c3c(cccc13)CC2	active
Cc1cc(C)c(N)cc1C	active
CCCCCCc1ccc(O)cc1O	inactive
O.O=S(=O)([O-])[O-].[Mn+2]	inactive
CCCCCCCCS(=O)C(C)Cc1ccc2c(c1)OCO2 (configuration not stated)	active
CCCC/C=N/N(C)C=O	active
BrCCBr	active; inactive
Nc1c(Br)cc(Br)c2c1C(=O)c1ccccc1C2=O	active
Nc1nnc(-c2ccc([N+](=O)[O-])o2)s1	active
Nc1ccc(-c2ccc(F)cc2)cc1	active
C[C@](N)(Cc1ccc(O)c(O)c1)C(=O)O	inactive
Nc1cccc2ccccc12	active
C=CCN(CC(C)O)N=O (configuration not stated)	active
ClCOCC(COCCl)OCCl	active
COC(=O)C(c1ccccc1)C1CCCCN1 (configuration not stated)	active
CN(CCCO)N=O	active; inactive

Reference: PubChem BioAssay AID1189 (EPA DSSTox, 2008)
